From article PMC9502953 (Molecules, 2022)

What was measured:
[1] = DPPH radical scavenging (Blois method, 517 nm)
Experimental: (§1) The DPPH radical scavenging activities were assessed by measuring the absorbance at 517 nm after keeping in the dark for 30 min [81]. […] ABTS solution (7.0 mM) was prepared using K2S2O8 ([…]), and the absorbance of the control was set to 0.700 ± 0.025 at 734 nm on dilution with buffer solution (0.1 M and pH 7.4). […] The control included only ABTS radical solution [82]. […] Briefly, 0.2 mL of FeCl3 (50 mM) and 1 mL of DMPD solution were added to the buffer (pH 5.3, 100 mM). The concentrations of all of the samples were 10–30 μg/mL. The total volume was adjusted to […] using deionized water. An aliquot (1 mL) of DMPD radicals was added, and the absorbance was recorded at 505 nm. The radical scavenging results were expressed as half maximal scavenging concentrations (IC50, μg/mL).

[2] = biological target: T1, human carbonic anhydrase II (hCA II) (Homo sapiens, UniProt P00918); assay: Carbonic anhydrase II inhibition (esterase activity, 348 nm); assay type: biochemical
T1 construct: from tissue; host or cells: human erythrocytes
Experimental: The CA II isozyme was purified from human erythrocytes using Sepharose-4B-Tirozyne-sulfanylamide affinity column chromatography. Further, it was precipitated, and the serum was separated and adjusted with solid Tris to pH 8.7. The sample was then loaded to the affinity chromatography column and equilibrated with Tris-Na2SO4/HCl (pH 8.7, 22 mM/25 mM). CA II was eluted with sodium acetate/NaClO4 (0.5 M, pH 5.6, 25 °C). Protein quantity during the purification study was determined using the Bradford method. Bovine serum albumin was used as the standard protein [93]. The purity of CA II was controlled using SDS-PAGE [94]. During purification and inhibition of CA II, esterase activities were performed following the change in absorbance at 348 nm
(§2) The Ki values and other parameters were calculated from Lineweaver-Burk graphs as described priorly. The Ki values were taken out from this graph. All of the analyses were independently conducted in triplicate, and the results are expressed as mean values ± SD.

[3] = DMPD radical scavenging (505 nm)
Experimental: as §1

[4] = biological target: T2, acetylcholinesterase (AChE) (Electrophorus electricus, UniProt O42275); assay: biochemical
T2 construct: purchased Sigma-Aldrich GmbH (Steinheim, Germany)
Experimental: AChI and BChI were used as substrates for enzymatic reactions.
as §2

[5] = Fe^3+ reducing ability (K3Fe(CN)6 reduction, absorbance at 700 nm); conditions: 30 μg/mL concentration
Experimental: (§3) The reaction was terminated by adding 1 mL of trichloroacetic acid (TCA, 10%). Following this, 0.5 mL of newly prepared FeCl3 (0.1%) was transferred, and the absorptions were measured at 700 nm. Deionized water was used as the blank control. […] Finally, after 20 min, absorbances were recorded at 450 nm.

[6] = ABTS radical scavenging (734 nm)
Experimental: as §1

[7] = Cu^2+ reducing ability (CUPRAC, neocuproine, absorbance at 450 nm); conditions: 30 μg/mL concentration
Experimental: as §3

[8] = set-up: method as in ref 47, 48, 3, 53, 49, 48, 12, 53, 50 (in order of compounds); conditions: 50 (in order of compounds); cited from earlier work
[9] = cited from earlier work; for DPPH^• removal IC50 (literature): 50 (in order of compounds); for IC50 values for comparison (radical scavenging; assay not given, paragraph on DPPH): 53 (in order of compounds)
[10] = set-up: method as in ref 12, 43, 3, 44, 45, 46 (in order of compounds); conditions: similar quantities; 46 (in order of compounds); cited from earlier work
[11] = set-up: method as in ref 12, 3, 47, 48, 49, 50 (in order of compounds); conditions: same concentration; 50 (in order of compounds); cited from earlier work

T2 sequence (O42275 24-633): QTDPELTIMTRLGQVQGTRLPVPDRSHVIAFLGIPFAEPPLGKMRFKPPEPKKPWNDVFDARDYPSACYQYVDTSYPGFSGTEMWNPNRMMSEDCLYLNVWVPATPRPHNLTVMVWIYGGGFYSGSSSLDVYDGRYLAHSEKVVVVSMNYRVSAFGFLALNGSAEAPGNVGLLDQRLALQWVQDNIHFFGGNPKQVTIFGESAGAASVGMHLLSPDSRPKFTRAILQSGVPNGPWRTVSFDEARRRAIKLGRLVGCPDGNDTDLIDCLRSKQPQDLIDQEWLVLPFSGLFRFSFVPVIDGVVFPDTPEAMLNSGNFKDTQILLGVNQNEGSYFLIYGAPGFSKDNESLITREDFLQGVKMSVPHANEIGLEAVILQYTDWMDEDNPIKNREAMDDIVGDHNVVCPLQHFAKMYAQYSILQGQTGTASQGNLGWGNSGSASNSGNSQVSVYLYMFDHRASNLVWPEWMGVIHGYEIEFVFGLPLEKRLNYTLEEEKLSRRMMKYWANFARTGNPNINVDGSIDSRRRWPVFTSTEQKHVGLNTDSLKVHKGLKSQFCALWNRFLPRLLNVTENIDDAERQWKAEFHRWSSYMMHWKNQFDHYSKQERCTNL

For `COc1ccc2c(c1O)-c1c(O)c(OC)cc3c1[C@H](C2)[N+](C)(C)CC3` [Magnofluorine], the “DPPH^• Scavenging IC50” value [1] was 10.58 mg/L, the IC50 [2] was 0.026 µM and the Ki ([2]; Lineweaver-Burk graphs, mean ± SD, read-out: Ki CA II) was 0.0254 ± 0.0011 µM. For the same compound, the “DMPD^•+ Scavenging IC50” value [3] was 15.26 mg/L, the IC50 [4] was 0.01 µM and the “Fe^3+ Reducing λ (700 nm) absorbance” value [5] was 0.967. The “ABTS^•+ Scavenging IC50” value [6] was 27.61 mg/L and the “Cu^2+ Reducing λ (450 nm) absorbance” value [7] was 0.458.
In the case of L-Adrenaline, the “DMPD^•+ removing IC50 (literature)” value [8] is listed as 15.6 mg/L, the “DPPH^• removal IC50 (literature)” value [9] is listed as 30.6 mg/L and the “IC50 values for comparison (radical scavenging; assay not given, paragraph on DPPH)” value [9] is listed as 6.93 mg/L.
For `O=C(/C=C/c1ccc(O)c(O)c1)OCCc1ccccc1` [CAPE, caffeic acid phenethyl ester], the “DMPD^•+ removing IC50 (literature)” value [8] is listed as 26.70 mg/L, the “Fe^3+-reducing absorbance values (previous studies)” value (“Fe^3+-reducing absorbance values” below) [10] is listed as 2.509 and the “DPPH^• removal IC50 (literature)” value [9] is listed as 3.30 mg/L. For the same compound, the “IC50 values for comparison (radical scavenging; assay not given, paragraph on DPPH)” value [9] was 9.80 mg/L.
For `CC(=O)c1c(O)c(C)c(O)c2c1OC1=CC(=O)C(C(C)=O)C(=O)C12C` (centres unmarked) [usnic acid], the “DMPD^•+ removing IC50 (literature)” value [8] is listed as 33.00 mg/L, the “Fe^3+-reducing absorbance values” value [10] is listed as 0.278 and the “DPPH^• removal IC50 (literature)” value [9] is listed as 49.50 mg/L. For the same compound, the “IC50 values for comparison (radical scavenging; assay not given, paragraph on DPPH)” value [9] was 10.41 mg/L and the “Cu^2+-reducing absorbance values (natural phenolics)” value (from here on “Cu^2+-reducing absorbance values”) [11] was 0.277.
For `COc1ccc(O)c(C(C)(C)C)c1` [BHA, butylated hydroxyanisole], the “DPPH^• Scavenging IC50” value [1] was 10.10 mg/L, the “DMPD^•+ Scavenging IC50” value [3] was 11.99 mg/L and the “Fe^3+ Reducing λ (700 nm) absorbance” value [5] was 2.347. For the same compound, the “ABTS^•+ Scavenging IC50” value [6] was 5.07 mg/L and the “Cu^2+ Reducing λ (450 nm) absorbance” value [7] was 2.216.
In the case of `O=C1c2c(O)cc(O)cc2OC(c2ccc(O)c(O)c2)C1O` (centres unmarked) [taxifolin], the “DMPD^•+ removing IC50 (literature)” value [8] is given as 173.25 mg/L, the “DPPH^• removal IC50 (literature)” value [9] is given as 77.00 mg/L and the “IC50 values for comparison (radical scavenging; assay not given, paragraph on DPPH)” value [9] is given as 0.83 mg/L. The “Cu^2+-reducing absorbance values” value [11] was 0.750.
For `Cc1c(C)c2c(c(C)c1O)CC[C@@](C)(CCC[C@H](C)CCC[C@H](C)CCCC(C)C)O2` [α-Tocopherol], the “DPPH^• Scavenging IC50” value [1] was 11.31 mg/L, the “DMPD^•+ Scavenging IC50” value [3] was 7.11 mg/L and the “Fe^3+ Reducing λ (700 nm) absorbance” value [5] was 0.957. The “ABTS^•+ Scavenging IC50” value [6] was 8.73 mg/L and the “Cu^2+ Reducing λ (450 nm) absorbance” value [7] was 0.816.
In the case of `Cc1c(C)c2c(c(C)c1O)CCC(C)(C(=O)O)O2` (centres unmarked) [Trolox], the “DPPH^• Scavenging IC50” value [1] is reported as 7.059 mg/L, the “DMPD^•+ Scavenging IC50” value [3] is reported as 4.33 mg/L and the “Fe^3+ Reducing λ (700 nm) absorbance” value [5] is reported as 2.119. For the same compound, the “ABTS^•+ Scavenging IC50” value [6] was 6.16 mg/L and the “Cu^2+ Reducing λ (450 nm) absorbance” value [7] was 1.548.
For `O=c1[nH]c(=O)c2[nH]c(=O)[nH]c2[nH]1` [uric acid], the “Fe^3+-reducing absorbance values” value [10] is listed as 0.432.
In the case of `O=c1oc2cc(O)ccc2c2oc3cc(O)ccc3c12` [coumestrol], the “DMPD^•+ removing IC50 (literature)” value [8] is listed as 12.81 mg/L, the “Fe^3+-reducing absorbance values” value [10] is listed as 0.739 and the “IC50 values for comparison (radical scavenging; assay not given, paragraph on DPPH)” value [9] is listed as 25.95 mg/L. For the same compound, the “Cu^2+-reducing absorbance values” value [11] was 0.739.
With `Cc1cc(C(C)(C)C)c(O)c(C(C)(C)C)c1` [BHT, butylated hydroxytoluene] the “DPPH^• Scavenging IC50” value [1] was 25.95 mg/L, the “DMPD^•+ Scavenging IC50” value [3] was 8.72 mg/L and the “Fe^3+ Reducing λ (700 nm) absorbance” value [5] was 0.952. The “ABTS^•+ Scavenging IC50” value [6] was 6.99 mg/L and the “Cu^2+ Reducing λ (450 nm) absorbance” value [7] was 2.044.
For `O=C(O)/C=C/c1ccc(O)c(O)c1` [caffeic acid], the “Fe^3+-reducing absorbance values” value [10] is given as 2.769.
In the case of `C=CCc1ccc(O)c(OC)c1` [eugenol], the “DMPD^•+ removing IC50 (literature)” value [8] is given as 10.04 mg/L, the “DPPH^• removal IC50 (literature)” value [9] is given as 16.06 mg/L and the “IC50 values for comparison (radical scavenging; assay not given, paragraph on DPPH)” value [9] is given as 7.84 mg/L. The “Cu^2+-reducing absorbance values” value [11] was 0.762.
In the case of tannic acid, the “Fe^3+-reducing absorbance values” value [10] is listed as 2.428.
In the case of `CCCCCc1cc(O)cc(O)c1` [olivetol], the “DMPD^•+ removing IC50 (literature)” value [8] is listed as 19.25 mg/L, the “DPPH^• removal IC50 (literature)” value [9] is listed as 17.77 mg/L and the “IC50 values for comparison (radical scavenging; assay not given, paragraph on DPPH)” value [9] is listed as 1.94 mg/L. For the same compound, the “Cu^2+-reducing absorbance values” value [11] was 1.314.
